Assay results taken from patent publication US10513521B2, “Compositions and methods for inhibiting BMP” (The Brigham and Women's Hospital, Inc., priority 2014, dated 2019).
Counter-ions that a name gives are not always drawn.

Tests used:
ALK6 = ALK6 (Homo sapiens, UniProt O00238); assay: TR-FRET enzymatic ALK kinase assay, ALK6
Method: (§1) Briefly, the ALKs enzymatic assay was initiated by dispense 2.5 μl enzyme in 1× kinase reaction buffer. The assay plate was then added with compounds followed by incubation at room temperature for 10 minutes. Then 2.5 μl/well substrate was added.

ALK5 = molecular target: T1, ALK5 (Homo sapiens, UniProt P36897); assay: TR-FRET enzymatic ALK kinase assay, ALK5
T1 sequence (P36897 34-503): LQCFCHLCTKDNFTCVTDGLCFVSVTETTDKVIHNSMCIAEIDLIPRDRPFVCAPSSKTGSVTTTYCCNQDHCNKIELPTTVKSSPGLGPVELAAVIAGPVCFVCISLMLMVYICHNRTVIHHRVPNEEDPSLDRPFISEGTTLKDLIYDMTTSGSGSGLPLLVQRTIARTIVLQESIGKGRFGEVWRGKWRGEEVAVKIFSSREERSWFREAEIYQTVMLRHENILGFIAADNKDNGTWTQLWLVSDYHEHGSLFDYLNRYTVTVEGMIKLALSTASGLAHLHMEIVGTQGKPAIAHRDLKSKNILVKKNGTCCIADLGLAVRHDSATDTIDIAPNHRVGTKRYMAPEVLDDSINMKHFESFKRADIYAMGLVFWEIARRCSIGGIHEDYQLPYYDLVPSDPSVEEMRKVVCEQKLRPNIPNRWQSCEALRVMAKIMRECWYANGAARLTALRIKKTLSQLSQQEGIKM
Method: Six ALK kinase enzyme assays were developed for determination of compound activities on ALK1, ALK2, ALK3, ALK4, ALK5 and ALK6.
as §1

ALK3 = ALK3 (Homo sapiens, UniProt P36894); assay: TR-FRET enzymatic ALK kinase assay, ALK3
Chain of ALK3 (P36894 24-532): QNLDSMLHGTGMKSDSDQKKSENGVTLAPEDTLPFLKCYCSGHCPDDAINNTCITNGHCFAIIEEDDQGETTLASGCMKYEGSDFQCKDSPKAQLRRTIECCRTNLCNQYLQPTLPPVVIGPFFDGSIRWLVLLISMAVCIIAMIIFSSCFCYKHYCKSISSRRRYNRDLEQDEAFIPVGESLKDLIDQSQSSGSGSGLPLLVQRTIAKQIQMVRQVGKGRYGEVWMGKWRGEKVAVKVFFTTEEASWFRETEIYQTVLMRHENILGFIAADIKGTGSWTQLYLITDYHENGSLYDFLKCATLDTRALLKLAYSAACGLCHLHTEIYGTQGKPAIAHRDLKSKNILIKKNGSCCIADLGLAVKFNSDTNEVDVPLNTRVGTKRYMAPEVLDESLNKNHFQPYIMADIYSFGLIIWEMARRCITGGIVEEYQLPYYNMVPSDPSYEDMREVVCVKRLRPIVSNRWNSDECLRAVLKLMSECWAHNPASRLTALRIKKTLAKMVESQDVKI
Method: as §1

ALK2 = molecular target: T2, ALK2 (Homo sapiens, UniProt Q04771); assay: TR-FRET enzymatic ALK kinase assay, ALK2
T2 sequence (Q04771 21-509): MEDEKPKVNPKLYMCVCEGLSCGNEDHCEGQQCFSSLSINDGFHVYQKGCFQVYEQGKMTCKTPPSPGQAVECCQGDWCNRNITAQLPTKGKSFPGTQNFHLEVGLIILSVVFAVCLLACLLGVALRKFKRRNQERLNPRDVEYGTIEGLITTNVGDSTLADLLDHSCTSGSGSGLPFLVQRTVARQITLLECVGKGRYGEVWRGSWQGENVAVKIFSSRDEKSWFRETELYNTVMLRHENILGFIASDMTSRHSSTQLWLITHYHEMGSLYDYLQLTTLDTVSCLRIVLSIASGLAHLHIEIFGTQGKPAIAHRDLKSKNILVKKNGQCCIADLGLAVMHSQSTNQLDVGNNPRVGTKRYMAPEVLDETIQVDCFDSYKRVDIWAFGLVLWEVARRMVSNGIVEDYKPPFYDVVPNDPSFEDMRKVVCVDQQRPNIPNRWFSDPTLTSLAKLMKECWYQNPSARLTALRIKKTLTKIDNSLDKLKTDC
Method: as §1

ALK4 = molecular target: T3, ALK4 (Homo sapiens, UniProt P36896); assay: TR-FRET enzymatic ALK kinase assay, ALK4
T3 sequence (P36896 24-505): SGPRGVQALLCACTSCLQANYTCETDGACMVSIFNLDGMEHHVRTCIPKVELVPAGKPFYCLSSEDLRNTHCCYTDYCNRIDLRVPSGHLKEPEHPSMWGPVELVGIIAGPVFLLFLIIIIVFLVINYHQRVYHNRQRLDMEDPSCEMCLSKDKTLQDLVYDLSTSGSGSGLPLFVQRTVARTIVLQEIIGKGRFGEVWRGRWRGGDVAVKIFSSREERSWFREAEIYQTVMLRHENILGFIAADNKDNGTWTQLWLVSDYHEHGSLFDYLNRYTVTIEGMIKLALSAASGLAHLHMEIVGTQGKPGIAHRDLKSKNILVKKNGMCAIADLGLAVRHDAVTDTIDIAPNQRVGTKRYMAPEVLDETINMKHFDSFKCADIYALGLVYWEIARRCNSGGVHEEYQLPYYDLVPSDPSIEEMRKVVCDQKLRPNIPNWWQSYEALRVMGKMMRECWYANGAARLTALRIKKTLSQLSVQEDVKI
Method: as §1

ALK1 = ALK1 (Homo sapiens, UniProt P37023); assay: TR-FRET enzymatic ALK kinase assay, ALK1
Chain of ALK1 (P37023 22-503): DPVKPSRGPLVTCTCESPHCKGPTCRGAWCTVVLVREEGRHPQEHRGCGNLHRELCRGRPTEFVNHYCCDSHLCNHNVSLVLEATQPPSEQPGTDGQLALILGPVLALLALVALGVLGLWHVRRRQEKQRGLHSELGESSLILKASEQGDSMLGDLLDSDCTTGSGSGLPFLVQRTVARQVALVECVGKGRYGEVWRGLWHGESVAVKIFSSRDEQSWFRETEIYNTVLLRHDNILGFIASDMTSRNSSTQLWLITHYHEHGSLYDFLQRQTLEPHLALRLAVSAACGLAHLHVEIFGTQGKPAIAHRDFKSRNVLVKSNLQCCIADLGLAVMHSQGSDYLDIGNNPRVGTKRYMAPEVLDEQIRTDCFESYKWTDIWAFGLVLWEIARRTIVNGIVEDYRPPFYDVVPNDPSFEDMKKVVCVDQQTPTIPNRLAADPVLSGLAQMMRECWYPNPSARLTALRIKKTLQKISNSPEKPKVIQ
Method: as §1

Chain of ALK6 (O00238 14-502): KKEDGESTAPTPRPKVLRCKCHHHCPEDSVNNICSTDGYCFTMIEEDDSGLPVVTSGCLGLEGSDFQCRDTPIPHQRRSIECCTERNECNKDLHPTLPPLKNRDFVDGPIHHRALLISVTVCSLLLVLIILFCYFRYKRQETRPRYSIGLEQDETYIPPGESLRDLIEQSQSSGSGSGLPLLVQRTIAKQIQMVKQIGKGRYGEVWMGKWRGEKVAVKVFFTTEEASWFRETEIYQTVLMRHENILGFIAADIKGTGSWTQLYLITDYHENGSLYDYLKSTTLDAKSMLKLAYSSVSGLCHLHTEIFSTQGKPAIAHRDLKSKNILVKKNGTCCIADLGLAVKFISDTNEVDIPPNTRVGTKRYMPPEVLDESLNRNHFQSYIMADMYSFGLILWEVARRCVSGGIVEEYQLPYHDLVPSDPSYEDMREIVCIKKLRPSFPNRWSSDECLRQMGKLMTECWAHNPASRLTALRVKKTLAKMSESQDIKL

| IC50 (ALK6) | IC50 (ALK5) | IC50 (ALK3) | IC50 (ALK2) | IC50 (ALK4) | IC50 (ALK1) | Structure (SMILES) |
| --- | --- | --- | --- | --- | --- | --- |
| > 10 µM | > 10 µM | 2.5 µM | 0.044 µM | > 10 µM | 0.46 µM | CS(=O)(=O)c1cccc(-c2cnn3cc(-c4ccc(C5(N)CC5)cc4)cnc23)c1 [Compound 190, 1-(4-(3-(3-(methylsulfonyl)phenyl)pyrazolo[1,5-a]pyrimidin-6-yl)phenyl)cyclopropanamine] |
| > 10 µM | > 10 µM | 2.3 µM | 0.023 µM | > 10 µM | 0.32 µM | C[S+](=O)([O-])c1cccc(-c2cnn3cc(-c4ccc(OC5(CN6CCC7(CC6)CNC7)CC5)cc4)cnc23)c1 [Compound 184, 6-(4-(1-(2,7-diazaspiro[3.5]nonan-7-ylmethyl)cyclopropoxy)phenyl)-3-(3-(methylsulfonyl)phenyl)pyrazolo[1,5-a]pyrimidine] |
| > 10 µM | > 10 µM | > 10 µM | > 10 µM | > 10 µM | > 10 µM | NC(c1ccc(-c2cnn3cc(-c4ccc(OCCN5CCCCC5)cc4)cnc23)cc1)C(F)(F)F (stereo not drawn) [Compound 144, 2,2,2-trifluoro-1-(4-(6-(4-(2-(piperidin-1-yl)ethoxy)phenyl)pyrazolo[1,5-a]pyrimidin-3-yl)phenyl)ethanamine] |
| > 10 µM | > 10 µM | 4.9 µM | 0.12 µM | > 10 µM | 2 µM | NC(c1cccc(-c2cnn3cc(-c4ccc(OC5(CN6CCC(O)C6)CC5)cc4)cnc23)c1)C(F)(F)F (stereo not drawn) [Compound 182, 1-((1-(4-(3-(3-(1-amino-2,2,2-trifluoroethyl)phenyl)pyrazolo[1,5-a]pyrimidin-6-yl)phenoxy)cyclopropyl)methyl)pyrrolidin-3-ol] |
| > 10 µM | > 10 µM | 6.4 µM | 0.15 µM | > 10 µM | 0.79 µM | CC(O)c1cccc(-c2cnn3cc(-c4ccc(CCN5CCC(O)C5)cc4)cnc23)c1 (stereo not drawn) [Compound 148, 1-(4-(3-(3-(1-hydroxyethyl)phenyl)pyrazolo[1,5-a]pyrimidin-6-yl)phenethyl)pyrrolidin-3-ol] |
| > 10 µM | > 10 µM | 1.6 µM | 0.043 µM | > 10 µM | 0.79 µM | CC(O)c1cccc(-c2cnn3cc(-c4ccc(OC5(CN6CCC(O)CC6)CC5)cc4)cnc23)c1 (stereo not drawn) [Compound 174] |
| > 10 µM | > 10 µM | 1.2 µM | 0.03 µM | > 10 µM | 0.71 µM | C[C@H](O)c1cccc(-c2cnn3cc(-c4ccc(OC5(CN6CCCC6)CC5)cc4)cnc23)c1 [Compound 198, (S)-1-(3-(6-(4-(1-(pyrrolidin-1-ylmethyl)cyclopropoxy)phenyl)pyrazolo[1,5-a]pyrimidin-3-yl)phenyl)ethanol] |
| 8.1 µM | > 10 µM | 4.7 µM | 0.073 µM | 4.1 µM | 0.97 µM | CC(N)c1ccc(-c2cnc3c(-c4cccc(C(C)O)c4)cnn3c2)cc1 (stereo not drawn) [Compound 188, 1-(3-(6-(4-(1-aminoethyl)phenyl)pyrazolo[1,5-a]pyrimidin-3-yl)phenyl)ethanol] |
| > 10 µM | > 10 µM | > 10 µM | 0.28 µM | > 10 µM | 0.9 µM | CS(=O)(=O)c1cccc(-c2cnn3cc(-c4ccc(CC5CCNCC5)cc4)cnc23)c1 [Compound 126, 3-(3-(methylsulfonyl)phenyl)-6-(4-(piperidin-4-ylmethyl)phenyl)pyrazolo[1,5-a]pyrimidine. TFA] |
| 9.6 µM | > 10 µM | 1.5 µM | 0.033 µM | > 10 µM | 0.27 µM | CS(=O)(=O)c1cccc(-c2cnn3cc(-c4ccc(OC5(CN6CCCC6)CC5)cc4)cnc23)c1 [Compound 170, 3-(3-(methylsulfonyl)phenyl)-6-(4-(1-(pyrrolidin-1-ylmethyl)cyclopropoxy)phenyl)pyrazolo[1,5-a]pyrimidine] |
| > 10 µM | > 10 µM | 6.3 µM | 0.08 µM | > 10 µM | 0.39 µM | CS(=O)(=O)c1cccc(-c2cnn3cc(-c4ccc(CCN5CCCC5)cc4)cnc23)c1 [Compound 128, 3-(3-(methylsulfonyl)phenyl)-6-(4-(2-(pyrrolidin-1-yl)ethyl)phenyl)pyrazolo[1,5-a]pyrimidine] |
| > 10 µM | > 10 µM | 0.97 µM | 0.022 µM | > 10 µM | 0.27 µM | CS(=O)(=O)c1cccc(-c2cnn3cc(-c4ccc(OC5(CN6CCC(O)C6)CC5)cc4)cnc23)c1 (stereo not drawn) [Compound 195, 1-((1-(4-(3-(3-(methylsulfonyl)phenyl)pyrazolo[1,5-a]pyrimidin-6-yl)phenoxy)cyclopropyl)methyl)pyrrolidin-3-ol] |
| > 10 µM | > 10 µM | 4.8 µM | 0.089 µM | > 10 µM | 0.37 µM | CS(=O)(=O)c1cccc(-c2cnn3cc(-c4ccc(C5CCCNC5)cc4)cnc23)c1 (stereo not drawn) [Compound 139, 3-(3-(methylsulfonyl)phenyl)-6-(4-(piperidin-3-yl)phenyl)pyrazolo[1,5-a]pyrimidine] |
| > 10 µM | > 10 µM | > 10 µM | 0.069 µM | > 10 µM | 0.34 µM | NC1(c2ccc(-c3cnc4c(-c5ccc(S(N)(=O)=O)c6ccccc56)cnn4c3)cc2)CNC1 [Compound 209, 4-(6-(4-(3-aminoazetidin-3-yl)phenyl)pyrazolo[1,5-a]pyrimidin-3-yl)naphthalene-1-sulfonamide] |
| > 10 µM | > 10 µM | > 10 µM | 0.13 µM | > 10 µM | 0.61 µM | CC(O)c1cccc(-c2cnn3cc(-c4ccc(C5CCNC5)cc4)cnc23)c1 (stereo not drawn) [Compound 130, 1-(3-(6-(4-(pyrrolidin-3-yl)phenyl)pyrazolo[1,5-a]pyrimidin-3-yl)phenyl)ethanol] |
| > 10 µM | > 10 µM | > 10 µM | 3.2 µM | > 10 µM | > 10 µM | C[C@@H]1CNC[C@H](C)N1c1ccc(-c2cnc3c(-c4cccc5c(S(=O)(=O)N(C)C)cccc45)cnn3c2)cc1 [Compound 40, 5-(6-(4-((2R,6S)-2,6-dimethylpiperazin-1-yl)phenyl)pyrazolo[1,5-a]pyrimidin-3-yl)-N,N-dimethylnaphthalene-1-sulfonamide] |
| > 10 µM | > 10 µM | 0.5 µM | 0.02 µM | > 10 µM | 0.27 µM | C[S+](=O)([O-])c1cccc(-c2cnn3cc(-c4ccc(OC5(CN6CCCC(O)C6)CC5)cc4)cnc23)c1 (stereo not drawn) [Compound 186, 1-((1-(4-(3-(3-(methylsulfonyl)phenyl)pyrazolo[1,5-a]pyrimidin-6-yl)phenoxy)cyclopropyl)methyl)piperidin-3-ol] |
| 5.7 µM | > 10 µM | 1.5 µM | 0.052 µM | > 10 µM | 0.28 µM | CS(=O)(=O)c1cccc(-c2cnn3cc(-c4ccc(OC5(CN6CCNCC6)CC5)cc4)cnc23)c1 [Compound 169, 3-(3-(methylsulfonyl)phenyl)-6-(4-(1-(piperazin-1-ylmethyl)cyclopropoxy)phenyl)pyrazolo[1,5-a]pyrimidine] |
